Reference: article PMC8124549, “Antidepressants Differentially Regulate Intracellular Signaling from α1-Adrenergic Receptor Subtypes In Vitro” (International Journal of Molecular Sciences, 2021)
Like-named read-outs stand apart in the source and are kept apart here.

Experiments:
α1B-AR = target: T1, α1B-AR (Homo sapiens, UniProt P35368); experiment: IP-One HTRF inositol phosphate accumulation, PC12 cells; type: cell-based
T1 construct: gene ADRA1B; human receptor from pcDNA3.1+ plasmid, stably expressed in rat PC12 cells
T1 sequence (P35368 1-520): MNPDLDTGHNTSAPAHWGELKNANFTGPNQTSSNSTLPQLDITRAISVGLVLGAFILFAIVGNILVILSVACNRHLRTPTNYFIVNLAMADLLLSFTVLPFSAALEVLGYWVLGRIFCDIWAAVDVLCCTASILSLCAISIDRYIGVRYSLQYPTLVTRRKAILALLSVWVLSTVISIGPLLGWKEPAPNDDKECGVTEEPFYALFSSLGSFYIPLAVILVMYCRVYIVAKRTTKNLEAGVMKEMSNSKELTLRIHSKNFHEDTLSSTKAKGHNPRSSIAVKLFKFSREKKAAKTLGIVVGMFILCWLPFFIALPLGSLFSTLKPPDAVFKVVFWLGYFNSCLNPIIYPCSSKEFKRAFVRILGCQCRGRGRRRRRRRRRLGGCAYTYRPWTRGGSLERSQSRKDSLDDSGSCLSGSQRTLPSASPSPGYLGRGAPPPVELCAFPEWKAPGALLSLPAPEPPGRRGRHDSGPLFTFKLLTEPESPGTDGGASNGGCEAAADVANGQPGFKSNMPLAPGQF

α1A-AR = target: T2, α1A-AR (Homo sapiens, UniProt P35348); experiment: as above; type: cell-based
T2 construct: gene ADRA1A; human receptor from pcDNA3.1+ plasmid, stably expressed in rat PC12 cells
T2 sequence (P35348 1-466): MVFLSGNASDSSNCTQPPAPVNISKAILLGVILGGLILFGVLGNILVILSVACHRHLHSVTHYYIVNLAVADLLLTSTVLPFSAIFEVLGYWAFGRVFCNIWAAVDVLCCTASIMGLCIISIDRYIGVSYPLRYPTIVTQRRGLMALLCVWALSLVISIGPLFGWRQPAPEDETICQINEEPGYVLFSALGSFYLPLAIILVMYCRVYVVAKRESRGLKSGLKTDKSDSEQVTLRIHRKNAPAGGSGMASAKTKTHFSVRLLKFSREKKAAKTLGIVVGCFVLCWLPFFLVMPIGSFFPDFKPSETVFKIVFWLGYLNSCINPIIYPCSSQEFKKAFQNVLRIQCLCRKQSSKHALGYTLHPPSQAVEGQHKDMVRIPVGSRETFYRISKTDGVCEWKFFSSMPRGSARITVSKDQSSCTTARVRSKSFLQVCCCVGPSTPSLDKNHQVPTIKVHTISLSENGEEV

IC50 (α1B-AR)	IC50 (α1A-AR; read-out: α1A (converted))	IC50 (α1A-AR; antagonism of noradrenaline at EC90, 37 °C, pH 7)	SMILES
8.13 µM	0.468 µM		CN(C)CCCN1c2ccccc2CCc2ccccc21 [imipramine]
		1 × 10^−8.6 M	COc1cccc(OC)c1OCCNCC1COc2ccccc2O1 (stereo not drawn) [WB4101]

The next lines start with the molecule.

SMILES	IC50 (α1B-AR)	IC50 (α1A-AR; read-out: α1A (converted))	IC50 (α1A-AR; antagonism of noradrenaline at EC90, 37 °C, pH 7)
CNCCC(Oc1ccc(C(F)(F)F)cc1)c1ccccc1 (stereo not drawn) [fluoxetine]	> 100 µM		
CNCCCN1c2ccccc2CCc2ccccc21 [desipramine]	7.94 µM		
CN(C)CCCC1(c2ccc(F)cc2)OCc2cc(C#N)ccc21 (stereo not drawn) [citalopram]	> 100 µM		
